How the values were obtained:
human orexin-1 receptor = human orexin-1 receptor (Homo sapiens (Human), UniProt O43613); assay: In vitro assay: intracellular calcium measurements (FLIPR), antagonistic activity; assay type: cell-based; conditions: CHO cells expressing human orexin-1 receptor, orexin-A agonist, geometric mean, read-out: IC50 Ox1
Method: (§1) In Vitro Assay: Intracellular Calcium Measurements:
(§2) Chinese hamster ovary (CHO) cells expressing the human orexin-1 receptor and the human orexin-2 receptor, respectively, are grown in culture medium (Ham F-12 with L-Glutamine) containing 300 μg/ml G418, 100 U/ml penicillin, 100 μg/ml streptomycin and 10% heat inactivated fetal calf serum (FCS). The cells are seeded at 20,000 cells/well into 384-well black clear bottom sterile plates (Greiner). The seeded plates are incubated overnight at 37° C. in 5% CO2.
(§3) Human orexin-A as an agonist is prepared as 1 mM stock solution in MeOH: water (1:1), diluted in HBSS containing 0.1% bovine serum albumin (BSA), NaHCO3: 0.375 g/l and 20 mM HEPES for use in the assay at a final concentration of 3 nM.
(§4) Antagonists are prepared as 10 mM stock solution in DMSO, then diluted in 384-well plates using DMSO followed by a transfer of the dilutions into in HBSS containing 0.1% bovine serum albumin (BSA), NaHCO3: 0.375 g/l and 20 mM HEPES. On the day of the assay, 50 μl of staining buffer (HBSS containing 1% FCS, 20 mM HEPES, NaHCO3: 0.375 g/l, 5 mM probenecid (Sigma) and […] of the fluorescent calcium indicator fluo-4 AM (1 mM stock solution in DMSO, containing 10% pluronic) is added to each well. The 384-well cell-plates are incubated for 50 min at 37° C. in 5% CO2 followed by equilibration at RT for 30 min before measurement.
(§5) Within the Fluorescent Imaging Plate Reader (FLIPR Tetra, Molecular Devices), antagonists are added to the plate in a volume of 10 μl/well, incubated for 120 min and finally 10 μl/well of agonist is added. Fluorescence is measured for each well at 1 second intervals, and the height of each fluorescence peak is compared to the height of the fluorescence peak induced by an approximate EC70 (for example 5 nM) of orexin-A with vehicle in place of antagonist. The IC50 value (the concentration of compound needed to inhibit 50% of the agonistic response) is determined and may be normalized using the obtained IC50 value of a on-plate reference compound. Optimized conditions are achieved by adjustment of pipetting speed and cell splitting regime. The calculated IC50 values may fluctuate depending on the daily cellular assay performance. Fluctuations of this kind are known to those skilled in the art. Average IC50 values from several measurements are given as geometric mean values.

human orexin-2 receptor = human orexin-2 receptor (Homo sapiens (Human), UniProt O43614); assay: as above; assay type: cell-based; conditions: CHO cells expressing human orexin-2 receptor, orexin-A agonist, geometric mean, read-out: IC50 Ox2
Chain of human orexin-2 receptor (O43614 whole entry): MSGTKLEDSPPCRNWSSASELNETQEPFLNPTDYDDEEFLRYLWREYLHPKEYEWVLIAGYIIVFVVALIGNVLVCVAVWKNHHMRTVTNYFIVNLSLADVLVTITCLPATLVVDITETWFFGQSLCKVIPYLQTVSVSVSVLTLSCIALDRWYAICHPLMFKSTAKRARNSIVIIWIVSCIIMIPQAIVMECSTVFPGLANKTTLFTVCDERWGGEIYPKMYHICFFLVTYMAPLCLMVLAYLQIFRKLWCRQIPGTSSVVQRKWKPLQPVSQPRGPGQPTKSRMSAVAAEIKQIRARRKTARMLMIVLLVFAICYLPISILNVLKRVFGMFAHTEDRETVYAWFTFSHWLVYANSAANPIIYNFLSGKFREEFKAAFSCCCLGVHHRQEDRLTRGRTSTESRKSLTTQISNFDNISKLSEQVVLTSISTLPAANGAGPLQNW
Method: as §1, §2, §3, §4, §5

Chain of human orexin-1 receptor (O43613 whole entry): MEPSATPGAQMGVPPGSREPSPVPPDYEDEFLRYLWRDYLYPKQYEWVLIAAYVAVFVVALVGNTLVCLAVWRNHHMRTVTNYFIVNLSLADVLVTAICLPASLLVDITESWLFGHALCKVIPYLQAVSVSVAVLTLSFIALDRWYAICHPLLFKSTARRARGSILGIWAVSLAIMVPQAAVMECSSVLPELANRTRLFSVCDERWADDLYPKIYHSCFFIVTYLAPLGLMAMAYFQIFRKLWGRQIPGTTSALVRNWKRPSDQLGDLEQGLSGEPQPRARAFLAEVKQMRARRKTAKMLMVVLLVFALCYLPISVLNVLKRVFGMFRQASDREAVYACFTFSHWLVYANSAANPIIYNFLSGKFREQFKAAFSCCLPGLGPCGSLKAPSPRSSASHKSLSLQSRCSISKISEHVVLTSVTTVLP

IC50 (human orexin-1 receptor) [nM] | IC50 (human orexin-2 receptor) [nM] | Compound
22 | 18 | COc1cc2nc([C@]3(C)CCCN3C(=O)c3cc(C)ccc3-n3nccn3)[nH]c2cc1OC [Ex. 5.21]
7 | 6 | Cc1ccc(-n2nccn2)c(C(=O)N2CCC[C@@]2(C)c2nc3cc(Br)cc(C)c3n2C)c1 [Example 7.4, (S)-(2-(5-bromo-1,7-dimethyl-1H-benzo[d]imidazol-2-yl)-2-methylpyrrolidin-1-yl)(5-methyl-2-(2H-1,2,3-triazol-2-yl)phenyl)methanone]
13 | 981 | Cc1ccc(-n2nccn2)c(C(=O)N2CC[C@H](C)[C@H]2c2nc3c(C)cc(Cl)cc3[nH]2)c1F [Ex. 4.99]
14 | 37 | COc1ccc(-c2ccc(C)cc2C(=O)N2CCC[C@@]2(C)c2nc3cc(C)c(C)cc3[nH]2)cc1 [Ex. 5.94]
33 | 27 | Cc1nc(C(=O)N2CCC[C@H]2c2nc3c(C)cc(Br)cc3[nH]2)c(-c2ccccc2)s1 [Ex. 1.144]
426 | 104 | COc1cc2nc([C@]3(C)CCCN3C(=O)c3nc(C)ccc3-n3cccn3)[nH]c2cc1OC [Ex. 5.83]
38 | 246 | COc1cc2nc([C@@H]3[C@@H](C)CCN3C(=O)c3c(-n4nccn4)ccc(C)c3F)[nH]c2cc1OC [Ex. 4.44]
2 | 191 | COc1ccc(-c2sc(C)nc2C(=O)N2CC[C@H](C)[C@H]2c2nc3c(C)c(Cl)ccc3[nH]2)cn1 [Ex. 4.69]
203 | 31 | C=C1C[C@@H](c2nc3cc(OC)ccc3[nH]2)N(C(=O)c2nc(C)sc2-c2cccc(C(F)(F)F)c2)C1 [Ex. 6.30]
0.8 | 122 | Cc1nc(C(=O)N2CC[C@H](C)[C@H]2c2nc3c(C)c(Cl)ccc3[nH]2)c(-c2ccc(Cl)cc2)s1 [Ex. 4.63]
265 | 51 | Cc1ccc(-n2nccn2)c(C(=O)N2CCC[C@H]2c2nc3cc(Cl)ccc3[nH]2)c1 [Ex. 1.3]
227 | 924 | Cc1ccc(C(=O)N2CCC[C@@]2(C)c2nc3c(F)c(F)ccc3[nH]2)c(-n2nccn2)c1 [Ex. 5.202]
1810 | 29 | COc1ccc2nc([C@@H]3CCCN3C(=O)c3cc(F)ccc3-n3nccn3)[nH]c2c1 [Ex. 1.156]
54 | 615 | COc1ccc(-n2nccn2)c(C(=O)N2CCC[C@@]2(C)c2nc3cc(F)c(Br)cc3[nH]2)c1F [Ex. 5.132]
77 | 19 | C=C1C[C@@H](c2nc3cc(Cl)c(C(F)(F)F)cc3[nH]2)N(C(=O)c2c(F)cccc2-n2nccn2)C1 [Ex. 6.175]
6 | 1 | C=C1C[C@@H](c2nc3c(C)c(C)ccc3[nH]2)N(C(=O)c2nc(C)sc2-c2ccc(C)c(C)c2)C1 [Ex. 6.47]
265 | 861 | Cc1ccc(-n2cccn2)c(C(=O)N2CCC[C@@]2(C)c2nc3c(F)c(F)ccc3[nH]2)c1 [Ex. 5.201]
66 | 42 | Cc1nc(C(=O)N2C[C@@H](F)C[C@H]2c2nc3c(C)c(Cl)ccc3[nH]2)c(-c2ccccc2)s1 [Ex. 2.7]
14 | 315 | Cc1ccc(-n2nccn2)c(C(=O)N2CC[C@H](C)[C@H]2c2nc3cc(Cl)cc(C)c3[nH]2)c1 [Ex. 4.39]
31 | 60 | CCn1c([C@]2(C)CCCN2C(=O)c2cc(C)ccc2-c2ccccc2F)nc2cc(C)c(C)cc21 [Ex. 7.45]
217 | 24 | CSc1cccc2nc([C@@H]3CCCN3C(=O)c3c(F)cccc3-n3nccn3)[nH]c12 [Ex. 1.164]
30 | 29 | COc1ccc(-c2ccccc2C(=O)N2CCC[C@@]2(C)c2nc3c(C)c(C)ccc3[nH]2)cc1 [Ex. 5.119]
4 | 1 | C=C1C[C@@H](c2nc3c(C)cc(C)cc3[nH]2)N(C(=O)c2nc(C)sc2-c2ccc(C)c(C)c2)C1 [Ex. 6.58]
2 | 1340 | Cc1cccc(-c2sc(C)nc2C(=O)N2CC[C@H](C)[C@H]2c2nc3cc(C(F)(F)F)ccc3[nH]2)c1 [Ex. 4.138]
43 | 97 | COc1cc2nc([C@]3(C)CCCN3C(=O)c3nc(C)sc3-c3ccc(Cl)cc3)[nH]c2cc1OC [Ex. 5.79]

IC50 (human orexin-1 receptor) [nM] | IC50 (human orexin-2 receptor) [nM] | Compound
45 | 5 | CO[C@@H]1C[C@@H](c2nc3ccc(Cl)c(C)c3[nH]2)N(C(=O)c2cc(Cl)ccc2-n2nccn2)C1 [Ex. 3.10]
24 | 2 | CO[C@@H]1C[C@@H](c2nc3ccc(Cl)c(C)c3[nH]2)N(C(=O)c2cc(C)c(C)cc2-n2nccn2)C1 [Ex. 3.16]
11 | 1170 | Cc1nc(C(=O)N2CC[C@H](C)[C@H]2c2nc3cccc(C)c3[nH]2)c(-c2ccccc2)s1 [Ex. 4.4]
3890 | 67 | COc1ccc2nc([C@@H]3C[C@@H](OC)CN3C(=O)c3cc(F)ccc3-n3nccn3)[nH]c2c1 [Ex. 3.23]
41 | 4 | C=C1C[C@@H](c2nc3cc(C)c(C)cc3[nH]2)N(C(=O)c2cc(C)ccc2-n2nccn2)C1 [Ex. 6.61]
38 | 1340 | Cc1ccc(-c2nc(C(=O)N3CCC[C@@]3(C)c3nc4cc(Cl)c(C(F)(F)F)cc4[nH]3)c(-c3ccc(F)cc3)s2)cc1 [Ex. 5.288]
1 | 23 | COc1ccc(-n2nccn2)c(C(=O)N2CC[C@H](C)[C@H]2c2nc3c(C)c(Cl)ccc3[nH]2)c1 [Ex. 4.66]
12 | 83 | Cc1cc(C(=O)N2CCC[C@@]2(C)c2nc3c(F)c(F)ccc3[nH]2)c(-n2nccn2)cc1C [Ex. 5.199]
9 | 3 | C=C1C[C@@H](c2nc3cc(C(C)(C)C)ccc3[nH]2)N(C(=O)c2cc(C)c(C)cc2-n2nccn2)C1 [Ex. 6.165]
50 | 4350 | Cc1nc(C(=O)N2CC[C@H](C)[C@H]2c2nc3c(Cl)cccc3[nH]2)c(-c2ccc(F)cc2)s1 [Ex. 4.118]
20 | 1640 | Cc1cc(-c2nc(C(=O)N3CCC[C@@]3(C)c3nc4c(C)c(Cl)ccc4[nH]3)c(-c3ccc(F)cc3)s2)ccc1F [Ex. 5.252]
26 | 4910 | COC(=O)c1cccc2nc([C@@H]3[C@@H](C)CCN3C(=O)c3nc(C)sc3-c3cccc(Cl)c3)[nH]c12 [Ex. 4.13]
223 | 288 | COc1ccc(-n2nccn2)c(C(=O)N2C[C@H](OC)CC2(C)c2nc3c(C)c(Cl)ccc3[nH]2)c1F (stereo partly drawn) [Ex. 3.46]
74 | 57 | CO[C@@H]1C[C@@H](c2nc3ccc(Cl)c(C)c3[nH]2)N(C(=O)c2ccccc2-c2ccccc2)C1 [Ex. 3.39]
13 | 59 | C[C@@]1(c2nc3cc(C(F)(F)F)ccc3[nH]2)CCCN1C(=O)c1cc(Cl)ccc1-n1nccn1 [Ex. 5.166]
 | 635 | Cc1nc(C(=O)N2CC[C@H](C)[C@H]2c2nc3cc(C(F)(F)F)ccc3[nH]2)c(-c2ccc(C)c(C)c2)s1 [Ex. 4.145]
 | 4 | CO[C@H]1CN(C(=O)c2cc(C)c(C)cc2-n2nccn2)C(C)(c2nc3c(C)c(Cl)ccc3[nH]2)C1 (stereo partly drawn) [Ex. 3.48]
87 |  | Cc1ccc(-c2ncccn2)c(C(=O)N2CCC[C@@]2(C)c2nc3ccc(F)c(F)c3[nH]2)c1 [Ex. 5.283]
 | 80 | Cc1ccc(-c2sc(C)nc2C(=O)N2CC[C@H](C)[C@H]2c2nc3c(C(F)(F)F)cccc3[nH]2)cc1 [Ex. 4.153]
 | 6 | Cc1cc(C(=O)N2CCC[C@@]2(C)c2nc3cc(C(F)(F)F)c(Cl)cc3[nH]2)c(-n2nccn2)cc1C [Ex. 5.137]
117 |  | C[C@@]1(c2nc3cc(F)c(Br)cc3[nH]2)CCCN1C(=O)c1cc(F)ccc1-n1nccn1 [Ex. 5.126]
 | 8 | Cc1ccc(-c2ncccn2)c(C(=O)N2CCC[C@@]2(C)c2nc3cc(C(F)(F)F)c(Cl)cc3[nH]2)c1 [Ex. 5.279]
105 |  | Cc1nc(C(=O)N2CCCC2c2nc3cc(F)c(Cl)cc3[nH]2)c(-c2cccc(Cl)c2)s1 (stereo not drawn) [Ex. 1.98]
 | 8 | Cc1nc(C(=O)N2CCC[C@@]2(C)c2nc3c(C)c(C)c(Br)cc3[nH]2)c(-c2cc(F)cc(F)c2)s1 [Ex. 5.274]
2 |  | Cc1ccc(-n2nccn2)c(C(=O)N2CC[C@H](C)[C@H]2c2nc3c(C)c(Cl)ccc3[nH]2)c1F [Ex. 4.68]

— patent US9732075B2, “Benzimidazole-proline derivatives” (IDORSIA PHARMACEUTICALS LTD, priority 2012, dated 2017)
